“And” between values parts separate entries of the source, which are not always exact repeats. Equal values may be shown once.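 Cultured in 96-well plates, cells were exposed to test compound for 48 hours across five concentrations. At the GI50, growth is halved. TGI marks complete inhibition of growth.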 Bounds are passed on as bounds.

For the first assay, the system named is KM12 colon. As to the kind of experiment: NCI tumour cell line growth inhibition, 48 h.
Turning to `COC1CCC(N2C(=O)CNc3ncc(-c4ccc(C(C)(C)O)nc4)nc32)CC1` (centres undefined), the GI50 was 1.2 µM and 0.302 µM; the TGI was over 40.8 µM.
For the molecule `COC1CCC2C(NS(=O)(=O)c3ccc(C)cc3)CCCC2O1` (centres undefined) (tested in a mixture with another compound), the TGI was over 34.5 µM.
For the molecule `C#Cc1ccc(-n2c(/C=C/c3ccc(C(F)(F)F)cc3)nc3ncccc3c2=O)cc1`, the GI50 is 1.79 µM and the TGI worked out at 3.44 µM.
For `Cc1cc(I)cc(CN(C)CCCCN2CCCCC2)c1O`, the GI50 was 13.6 µM and the TGI came out at 31.3 µM.
On to `O=S1(=O)c2ccccc2NC(c2ccc3ccccc3c2)CC1c1ccccc1F` (centres undefined), for which the TGI was over 100 µM.
`C=C1C(=O)C23CC1CCC2C12CO[C@@H]4OCC(C)(CC[C@@H]1OC3=O)C42` (some centres undefined) returned a TGI of 17.3 µM.
`CN/N=C(/Cc1occc(=O)c1O)C(=O)Nc1ccccc1C`: the TGI is over 100 µM.

The test system of the next assay is SK-OV-3 ovarian. As to the kind of experiment: NCI tumour cell line growth inhibition, 48 h.
Regarding `COC1CCC(N2C(=O)CNc3ncc(-c4ccc(C(C)(C)O)nc4)nc32)CC1` (centres undefined), the GI50 was 0.464 µM and 0.0716 µM; the TGI is 3.93 µM and 0.551 µM.
`COC1CCC2C(NS(=O)(=O)c3ccc(C)cc3)CCCC2O1` (centres undefined) (tested in a mixture with another compound): the TGI is over 34.5 µM.
As to `C#Cc1ccc(-n2c(/C=C/c3ccc(C(F)(F)F)cc3)nc3ncccc3c2=O)cc1`, the GI50 was 3.61 µM and the TGI worked out at 13.4 µM.
As to `Cc1cc(I)cc(CN(C)CCCCN2CCCCC2)c1O`, the GI50 is 18.3 µM and the TGI stood at 42.4 µM.
For `O=S1(=O)c2ccccc2NC(c2ccc3ccccc3c2)CC1c1ccccc1F` (centres undefined), the TGI was over 100 µM.
Still for that read-out and setting: to `C=C1C(=O)C23CC1CCC2C12CO[C@@H]4OCC(C)(CC[C@@H]1OC3=O)C42` (some centres undefined) belongs 40.1 µM; to `CN/N=C(/Cc1occc(=O)c1O)C(=O)Nc1ccccc1C`, over 100 µM.

The subject of the next assay is NCI-H522 lung. As to the kind of experiment: NCI tumour cell line growth inhibition, 48 h.
`COC1CCC(N2C(=O)CNc3ncc(-c4ccc(C(C)(C)O)nc4)nc32)CC1` (centres undefined): the GI50 was 0.322 µM and 0.0656 µM; the TGI stood at 2.63 µM.
`COC1CCC2C(NS(=O)(=O)c3ccc(C)cc3)CCCC2O1` (centres undefined) (tested in a mixture with another compound) gave a TGI of 31.5 µM.
With `C#Cc1ccc(-n2c(/C=C/c3ccc(C(F)(F)F)cc3)nc3ncccc3c2=O)cc1`, the GI50 was 1.65 µM and the TGI was found to be 3.08 µM.
Consider `Cc1cc(I)cc(CN(C)CCCCN2CCCCC2)c1O`, for which the GI50 is 17.2 µM and the TGI is 38.2 µM.
As to `O=S1(=O)c2ccccc2NC(c2ccc3ccccc3c2)CC1c1ccccc1F` (centres undefined), the TGI was over 100 µM.
As for `C=C1C(=O)C23CC1CCC2C12CO[C@@H]4OCC(C)(CC[C@@H]1OC3=O)C42` (some centres undefined), the TGI stood at 2.33 µM.
As for `CN/N=C(/Cc1occc(=O)c1O)C(=O)Nc1ccccc1C`, the TGI was over 100 µM.

A further assay has as its system SK-MEL-2 melanoma. The experiment in a line: NCI tumour cell line growth inhibition, 48 h.
Take `COC1CCC(N2C(=O)CNc3ncc(-c4ccc(C(C)(C)O)nc4)nc32)CC1` (centres undefined): the GI50 is 0.772 µM and 0.183 µM; the TGI is 3.69 µM and 1.48 µM.
`COC1CCC2C(NS(=O)(=O)c3ccc(C)cc3)CCCC2O1` (centres undefined) (tested in a mixture with another compound): the TGI is over 34.5 µM.
As to `C#Cc1ccc(-n2c(/C=C/c3ccc(C(F)(F)F)cc3)nc3ncccc3c2=O)cc1`, the GI50 was 2.03 µM and the TGI was 4.09 µM.
The like results for `Cc1cc(I)cc(CN(C)CCCCN2CCCCC2)c1O` were, in that order, 13.8 µM and 29.2 µM.
The molecule `O=S1(=O)c2ccccc2NC(c2ccc3ccccc3c2)CC1c1ccccc1F` (centres undefined) yielded a TGI of over 100 µM.
In turn, `C=C1C(=O)C23CC1CCC2C12CO[C@@H]4OCC(C)(CC[C@@H]1OC3=O)C42` (some centres undefined) yielded a TGI of 16.9 µM.
The same measure, in the same setting: the value for `CN/N=C(/Cc1occc(=O)c1O)C(=O)Nc1ccccc1C` was over 100 µM.

For a further assay, the system named is A549 NSCLC. The experiment in a line: NCI tumour cell line growth inhibition, 48 h.
In the case of `COC1CCC(N2C(=O)CNc3ncc(-c4ccc(C(C)(C)O)nc4)nc32)CC1` (centres undefined), the GI50 was 1.48 µM and 0.337 µM; the TGI was over 34.5 µM.
As for `COC1CCC2C(NS(=O)(=O)c3ccc(C)cc3)CCCC2O1` (centres undefined) (tested in a mixture with another compound), the TGI was over 34.5 µM.
Turning to `C#Cc1ccc(-n2c(/C=C/c3ccc(C(F)(F)F)cc3)nc3ncccc3c2=O)cc1`, the GI50 is 1.83 µM and the TGI was determined as 4.56 µM.
As to `Cc1cc(I)cc(CN(C)CCCCN2CCCCC2)c1O`, the GI50 is 27.4 µM and the TGI amounted to 96.8 µM.
As for `O=S1(=O)c2ccccc2NC(c2ccc3ccccc3c2)CC1c1ccccc1F` (centres undefined), the TGI is over 100 µM.
Same read-out and setting: the value for `C=C1C(=O)C23CC1CCC2C12CO[C@@H]4OCC(C)(CC[C@@H]1OC3=O)C42` (some centres undefined) was 25.1 µM; that for `CN/N=C(/Cc1occc(=O)c1O)C(=O)Nc1ccccc1C` was over 100 µM.

In the next assay the test system is NCI-H460 lung. As to the kind of experiment: NCI tumour cell line growth inhibition, 48 h.
As for `COC1CCC(N2C(=O)CNc3ncc(-c4ccc(C(C)(C)O)nc4)nc32)CC1` (centres undefined), the GI50 was 0.455 µM and 0.113 µM; the TGI is over 46 µM.
As to `COC1CCC2C(NS(=O)(=O)c3ccc(C)cc3)CCCC2O1` (centres undefined) (tested in a mixture with another compound), the TGI is over 34.5 µM.
For `C#Cc1ccc(-n2c(/C=C/c3ccc(C(F)(F)F)cc3)nc3ncccc3c2=O)cc1`, the GI50 is 1.98 µM and the TGI was found to be 4.13 µM.
For `Cc1cc(I)cc(CN(C)CCCCN2CCCCC2)c1O`, the GI50 is 13.2 µM and the TGI is 26.7 µM.
On to `O=S1(=O)c2ccccc2NC(c2ccc3ccccc3c2)CC1c1ccccc1F` (centres undefined), for which the TGI was over 100 µM.
On the same count and under the same terms, to `C=C1C(=O)C23CC1CCC2C12CO[C@@H]4OCC(C)(CC[C@@H]1OC3=O)C42` (some centres undefined) belongs 17.5 µM.
The same measure, in the same setting: to `CN/N=C(/Cc1occc(=O)c1O)C(=O)Nc1ccccc1C` belongs over 100 µM.

Another assay has as its system TK-10 renal. As to the kind of experiment: NCI tumour cell line growth inhibition, 48 h.
In the case of `COC1CCC(N2C(=O)CNc3ncc(-c4ccc(C(C)(C)O)nc4)nc32)CC1` (centres undefined), the TGI is 5.58 µM and 1.86 µM.
The same measure, in the same setting: to `COC1CCC2C(NS(=O)(=O)c3ccc(C)cc3)CCCC2O1` (centres undefined) (tested in a mixture with another compound) belongs over 34.5 µM.
With `C#Cc1ccc(-n2c(/C=C/c3ccc(C(F)(F)F)cc3)nc3ncccc3c2=O)cc1`, the GI50 is 2.19 µM and the TGI is 3.7 µM.
As for `Cc1cc(I)cc(CN(C)CCCCN2CCCCC2)c1O`, the GI50 is 15.4 µM and the TGI stood at 31.1 µM.
`O=S1(=O)c2ccccc2NC(c2ccc3ccccc3c2)CC1c1ccccc1F` (centres undefined) came in with a TGI of over 100 µM.
On the same count and under the same terms, to `C=C1C(=O)C23CC1CCC2C12CO[C@@H]4OCC(C)(CC[C@@H]1OC3=O)C42` (some centres undefined) belongs 13.8 µM; to `CN/N=C(/Cc1occc(=O)c1O)C(=O)Nc1ccccc1C`, over 100 µM.

The subject of the next assay is HOP-62 NSCLC. As to the kind of experiment: NCI tumour cell line growth inhibition, 48 h.
As to `COC1CCC(N2C(=O)CNc3ncc(-c4ccc(C(C)(C)O)nc4)nc32)CC1` (centres undefined), the GI50 is 1.92 µM and 0.437 µM; the TGI is > 10 µM and 14.5 µM.
Take `COC1CCC2C(NS(=O)(=O)c3ccc(C)cc3)CCCC2O1` (centres undefined) (tested in a mixture with another compound): the TGI is over 34.5 µM.
Consider `C#Cc1ccc(-n2c(/C=C/c3ccc(C(F)(F)F)cc3)nc3ncccc3c2=O)cc1`, for which the GI50 is 2.43 µM and the TGI was 5.11 µM.
On to `Cc1cc(I)cc(CN(C)CCCCN2CCCCC2)c1O`, for which the GI50 was 14.4 µM and the TGI is 28.3 µM.
As for `O=S1(=O)c2ccccc2NC(c2ccc3ccccc3c2)CC1c1ccccc1F` (centres undefined), the TGI was over 100 µM.
`C=C1C(=O)C23CC1CCC2C12CO[C@@H]4OCC(C)(CC[C@@H]1OC3=O)C42` (some centres undefined): the TGI was 43.4 µM.
`CN/N=C(/Cc1occc(=O)c1O)C(=O)Nc1ccccc1C` came in with a TGI of over 100 µM.

A further assay relates to SNB-19 CNS. The experiment in a line: NCI tumour cell line growth inhibition, 48 h.
As for `COC1CCC(N2C(=O)CNc3ncc(-c4ccc(C(C)(C)O)nc4)nc32)CC1` (centres undefined), the GI50 is 2.02 µM and 1.57 µM; the TGI was over 36.2 µM.
As for `COC1CCC2C(NS(=O)(=O)c3ccc(C)cc3)CCCC2O1` (centres undefined) (tested in a mixture with another compound), the TGI was over 34.5 µM.
On to `C#Cc1ccc(-n2c(/C=C/c3ccc(C(F)(F)F)cc3)nc3ncccc3c2=O)cc1`, for which the GI50 is 1.91 µM and the TGI came to 4.25 µM.
The corresponding values for `Cc1cc(I)cc(CN(C)CCCCN2CCCCC2)c1O` are 19 µM and 45.9 µM.
The molecule `O=S1(=O)c2ccccc2NC(c2ccc3ccccc3c2)CC1c1ccccc1F` (centres undefined) came in with a TGI of over 100 µM.
For `C=C1C(=O)C23CC1CCC2C12CO[C@@H]4OCC(C)(CC[C@@H]1OC3=O)C42` (some centres undefined), the TGI was determined as 20.3 µM.
The same measure, in the same setting: to `CN/N=C(/Cc1occc(=O)c1O)C(=O)Nc1ccccc1C` belongs over 100 µM.

The subject of the next assay is CAKI-1 renal. The experiment in a line: NCI tumour cell line growth inhibition, 48 h.
`COC1CCC(N2C(=O)CNc3ncc(-c4ccc(C(C)(C)O)nc4)nc32)CC1` (centres undefined): the GI50 is 0.412 µM and the TGI was over 6.75 µM.
The molecule `COC1CCC2C(NS(=O)(=O)c3ccc(C)cc3)CCCC2O1` (centres undefined) (tested in a mixture with another compound) yielded a TGI of over 34.5 µM.
For the molecule `C#Cc1ccc(-n2c(/C=C/c3ccc(C(F)(F)F)cc3)nc3ncccc3c2=O)cc1`, the GI50 was 2.26 µM and the TGI stood at 6.22 µM.
The like results for `Cc1cc(I)cc(CN(C)CCCCN2CCCCC2)c1O` were, in that order, 13.6 µM and 29.5 µM.
`O=S1(=O)c2ccccc2NC(c2ccc3ccccc3c2)CC1c1ccccc1F` (centres undefined): the TGI was over 100 µM.
On the same count and under the same terms, to `C=C1C(=O)C23CC1CCC2C12CO[C@@H]4OCC(C)(CC[C@@H]1OC3=O)C42` (some centres undefined) belongs 5.33 µM; to `CN/N=C(/Cc1occc(=O)c1O)C(=O)Nc1ccccc1C`, over 100 µM.

Values taken from PubChem BioAssay (NCI).
